Reference: US11787781B2, “Inhibiting ataxia telangiectasia and RAD3-related protein (ATR)” (Celator Pharmaceuticals, Inc., priority 2016, dated 2023)
Like-named read-outs stand apart in the source and are kept apart here.

Key:
[1] = test system: H358 cells; test: Cell death and growth assay, H358 cells; type: cell-based; settings: set concentrations, in combination with Gemcitabine
Text: (§1) In all cases, relative cell proliferation is reduced with the combinations compared to the drugs alone (FIG. 21B-C).

[2] = test system: U2OS cells; test: Cell death and growth assay, U2OS cells; type: cell-based; settings: set concentrations, in combination with Gemcitabine
Description: U20S and all other cells were grown in (RPMI) supplemented with 10% fetal bovine serum (FBS) and antibiotics. Imaging and time-lapse compatible NucLight red cell lines were generated as recommend by Essen Bioscience Inc. using lentiviral particles, infection and puromycin selection protocols.
The results were compared back to a prediction of cell growth and death with the combination of the two compounds (FIG. 18A).
as §1

[3] = pKa; type: physicochemical; settings: method not stated
[4] = target: RET (Homo sapiens (Human), UniProt P07949); test: Broad kinase panel screening; type: biochemical
Text: (§2) Example 16: Broad Kinase Panel Screening (359)
(§3) Major hits out of 359 were: ALK, ARK, c-MER, CLK1, DYRK, GSK3a, GSK3b, FLT2, FLT3, MLK1, SIK2, TNIK, and YSK4.

[5] = target: YSK4/MAP3K19 (Homo sapiens (Human), UniProt Q56UN5); test: Broad kinase panel screening; type: biochemical
Text: as §2, §3

[6] = target: SIK2 (Homo sapiens (Human), UniProt Q9H0K1); test: Broad kinase panel screening; type: biochemical
Text: as §2, §3

[7] = target: CLK4 (Homo sapiens (Human), UniProt Q9HAZ1); test: Broad kinase panel screening; type: biochemical
Text: as §2, §3

[8] = target: DDR1 (Homo sapiens (Human), UniProt Q08345); test: Broad kinase panel screening; type: biochemical
Text: as §2, §3

[9] = target: GSK3a (Homo sapiens (Human), UniProt P49840); test: Broad kinase panel screening; type: biochemical
GSK3a, sequence (P49840 whole entry, species assumed): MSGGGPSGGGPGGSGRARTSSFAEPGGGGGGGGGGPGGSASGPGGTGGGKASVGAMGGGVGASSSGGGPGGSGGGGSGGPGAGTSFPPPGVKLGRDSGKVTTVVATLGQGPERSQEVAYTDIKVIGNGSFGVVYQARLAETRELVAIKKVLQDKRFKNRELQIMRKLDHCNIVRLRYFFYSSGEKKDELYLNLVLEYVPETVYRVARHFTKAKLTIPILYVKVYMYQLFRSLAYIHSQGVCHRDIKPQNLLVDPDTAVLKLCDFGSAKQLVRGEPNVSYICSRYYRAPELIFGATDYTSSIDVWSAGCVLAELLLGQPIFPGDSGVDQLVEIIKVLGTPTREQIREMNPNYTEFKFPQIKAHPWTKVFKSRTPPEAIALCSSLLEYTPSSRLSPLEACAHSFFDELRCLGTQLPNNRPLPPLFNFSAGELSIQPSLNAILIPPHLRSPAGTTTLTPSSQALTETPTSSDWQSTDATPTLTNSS
Text: as §2, §3

[10] = target: PIM1 (Homo sapiens (Human), UniProt P11309); test: Broad kinase panel screening; type: biochemical
PIM1, sequence (P11309 whole entry, species assumed): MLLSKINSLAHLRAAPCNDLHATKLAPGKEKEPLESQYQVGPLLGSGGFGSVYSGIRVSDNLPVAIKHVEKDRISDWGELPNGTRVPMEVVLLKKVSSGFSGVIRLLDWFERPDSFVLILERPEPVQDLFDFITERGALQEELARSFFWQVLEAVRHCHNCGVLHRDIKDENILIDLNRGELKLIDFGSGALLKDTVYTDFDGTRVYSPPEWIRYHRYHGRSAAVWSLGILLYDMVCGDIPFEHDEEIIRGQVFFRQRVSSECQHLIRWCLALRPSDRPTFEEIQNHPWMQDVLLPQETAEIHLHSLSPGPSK
Text: as §2, §3

[11] = target: PKCmu/PRKD1 (Homo sapiens (Human), UniProt Q15139); test: Broad kinase panel screening; type: biochemical
Text: as §2, §3

[12] = target: MLK3/MAP3K11 (Homo sapiens (Human), UniProt Q16584); test: Broad kinase panel screening; type: biochemical
MLK3/MAP3K11, sequence (Q16584 whole entry): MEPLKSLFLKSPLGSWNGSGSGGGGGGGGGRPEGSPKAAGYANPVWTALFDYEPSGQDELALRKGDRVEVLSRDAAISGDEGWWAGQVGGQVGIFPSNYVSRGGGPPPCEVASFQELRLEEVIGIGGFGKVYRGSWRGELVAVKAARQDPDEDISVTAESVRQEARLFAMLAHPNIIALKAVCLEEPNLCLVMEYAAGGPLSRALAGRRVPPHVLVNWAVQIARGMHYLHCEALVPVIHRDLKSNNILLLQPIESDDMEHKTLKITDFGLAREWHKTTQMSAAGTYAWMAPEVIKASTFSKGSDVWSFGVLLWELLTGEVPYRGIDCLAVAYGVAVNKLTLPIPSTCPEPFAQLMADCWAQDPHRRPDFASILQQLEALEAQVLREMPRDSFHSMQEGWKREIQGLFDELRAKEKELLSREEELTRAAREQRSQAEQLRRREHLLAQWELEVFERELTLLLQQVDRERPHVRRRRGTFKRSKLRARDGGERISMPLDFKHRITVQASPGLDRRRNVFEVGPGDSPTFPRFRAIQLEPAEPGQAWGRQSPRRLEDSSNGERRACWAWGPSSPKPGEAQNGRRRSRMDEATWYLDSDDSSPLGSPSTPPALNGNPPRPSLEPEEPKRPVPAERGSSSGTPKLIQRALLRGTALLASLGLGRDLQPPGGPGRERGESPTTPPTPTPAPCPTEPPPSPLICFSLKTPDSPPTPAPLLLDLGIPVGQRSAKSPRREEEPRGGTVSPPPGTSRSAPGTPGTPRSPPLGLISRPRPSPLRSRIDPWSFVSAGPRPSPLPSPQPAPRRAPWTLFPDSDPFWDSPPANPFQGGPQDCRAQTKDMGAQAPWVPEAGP
Text: as §2, §3

[13] = target: GSK3b (Homo sapiens (Human), UniProt P49841); test: Broad kinase panel screening; type: biochemical
GSK3b, sequence (P49841 whole entry, species assumed): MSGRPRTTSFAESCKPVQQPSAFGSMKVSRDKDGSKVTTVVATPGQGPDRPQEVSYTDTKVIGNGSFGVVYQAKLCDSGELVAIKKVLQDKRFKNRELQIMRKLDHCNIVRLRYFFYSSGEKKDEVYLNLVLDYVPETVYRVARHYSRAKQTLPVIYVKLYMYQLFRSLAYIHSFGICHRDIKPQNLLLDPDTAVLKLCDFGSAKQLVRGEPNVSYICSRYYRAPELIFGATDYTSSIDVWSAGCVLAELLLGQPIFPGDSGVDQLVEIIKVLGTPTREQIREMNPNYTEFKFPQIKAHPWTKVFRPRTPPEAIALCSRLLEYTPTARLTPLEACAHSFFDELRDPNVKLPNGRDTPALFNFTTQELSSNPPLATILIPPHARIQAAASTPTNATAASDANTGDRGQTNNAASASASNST
Text: as §2, §3

[14] = target: FLT4/VEGFR3 (Homo sapiens (Human), UniProt P35916); test: Broad kinase panel screening; type: biochemical
FLT4/VEGFR3, sequence (P35916 25-1363): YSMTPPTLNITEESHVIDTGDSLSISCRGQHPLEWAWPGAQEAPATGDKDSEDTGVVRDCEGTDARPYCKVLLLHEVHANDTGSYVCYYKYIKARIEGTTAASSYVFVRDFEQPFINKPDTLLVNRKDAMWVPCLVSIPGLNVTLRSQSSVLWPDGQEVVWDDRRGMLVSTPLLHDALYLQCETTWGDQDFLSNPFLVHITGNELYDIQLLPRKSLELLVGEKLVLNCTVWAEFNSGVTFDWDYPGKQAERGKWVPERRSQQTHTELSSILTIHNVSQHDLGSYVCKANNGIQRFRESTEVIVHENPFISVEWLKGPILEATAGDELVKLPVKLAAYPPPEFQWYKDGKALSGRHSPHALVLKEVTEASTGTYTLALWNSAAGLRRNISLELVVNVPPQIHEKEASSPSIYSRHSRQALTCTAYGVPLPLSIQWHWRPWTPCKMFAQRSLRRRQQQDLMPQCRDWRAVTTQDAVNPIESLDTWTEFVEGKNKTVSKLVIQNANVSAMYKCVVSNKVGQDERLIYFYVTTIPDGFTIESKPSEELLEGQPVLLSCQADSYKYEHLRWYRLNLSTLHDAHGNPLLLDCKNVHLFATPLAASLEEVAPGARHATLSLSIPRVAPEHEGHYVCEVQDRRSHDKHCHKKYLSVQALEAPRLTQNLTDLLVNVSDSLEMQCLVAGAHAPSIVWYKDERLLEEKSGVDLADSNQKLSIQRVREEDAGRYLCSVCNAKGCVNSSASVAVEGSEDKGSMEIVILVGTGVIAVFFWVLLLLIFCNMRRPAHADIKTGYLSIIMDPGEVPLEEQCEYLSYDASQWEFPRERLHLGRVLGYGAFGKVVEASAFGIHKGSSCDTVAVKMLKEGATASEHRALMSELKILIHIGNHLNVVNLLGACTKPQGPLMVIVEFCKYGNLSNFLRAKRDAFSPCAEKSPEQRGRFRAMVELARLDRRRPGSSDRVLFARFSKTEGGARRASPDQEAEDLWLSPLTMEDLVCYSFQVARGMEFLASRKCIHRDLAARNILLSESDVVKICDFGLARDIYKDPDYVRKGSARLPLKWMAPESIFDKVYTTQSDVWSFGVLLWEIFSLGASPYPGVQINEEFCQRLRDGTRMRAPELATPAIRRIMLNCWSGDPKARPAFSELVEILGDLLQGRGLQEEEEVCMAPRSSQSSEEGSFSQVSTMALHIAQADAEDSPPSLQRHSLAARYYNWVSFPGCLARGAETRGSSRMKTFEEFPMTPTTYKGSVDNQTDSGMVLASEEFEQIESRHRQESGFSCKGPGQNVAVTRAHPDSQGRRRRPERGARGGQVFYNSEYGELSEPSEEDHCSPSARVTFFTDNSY
Text: as §2, §3

[15] = target: TNIK (Homo sapiens (Human), UniProt Q9UKE5); test: Broad kinase panel screening; type: biochemical
Text: as §2, §3

[16] = target: MLK1/MAP3K9 (Homo sapiens (Human), UniProt P80192); test: Broad kinase panel screening; type: biochemical
Text: as §2, §3

[17] = target: ARK5/NUAK1 (Homo sapiens (Human), UniProt O60285); test: Broad kinase panel screening; type: biochemical
Text: as §2, §3

[18] = target: DYRK2 (Homo sapiens (Human), UniProt Q92630); test: Broad kinase panel screening; type: biochemical
DYRK2, sequence (Q92630 whole entry, species assumed): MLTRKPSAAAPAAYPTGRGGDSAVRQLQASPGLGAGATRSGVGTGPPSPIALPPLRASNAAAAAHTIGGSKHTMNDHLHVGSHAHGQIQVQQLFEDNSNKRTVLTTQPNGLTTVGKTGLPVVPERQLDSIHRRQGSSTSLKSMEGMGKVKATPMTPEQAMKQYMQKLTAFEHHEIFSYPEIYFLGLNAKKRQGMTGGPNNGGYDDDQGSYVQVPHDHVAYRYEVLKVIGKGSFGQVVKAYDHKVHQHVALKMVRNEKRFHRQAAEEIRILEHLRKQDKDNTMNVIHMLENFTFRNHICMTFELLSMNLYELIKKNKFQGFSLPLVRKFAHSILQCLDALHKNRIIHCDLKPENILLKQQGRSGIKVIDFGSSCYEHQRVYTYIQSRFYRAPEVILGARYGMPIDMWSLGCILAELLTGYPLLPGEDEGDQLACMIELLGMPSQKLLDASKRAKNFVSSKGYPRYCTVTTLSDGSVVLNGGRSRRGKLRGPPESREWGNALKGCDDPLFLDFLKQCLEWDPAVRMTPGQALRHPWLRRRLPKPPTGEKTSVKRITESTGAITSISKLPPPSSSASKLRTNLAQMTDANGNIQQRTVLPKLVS
Text: as §2, §3

[19] = target: ALK1/ACVRL1 (Homo sapiens (Human), UniProt P37023); test: Broad kinase panel screening; type: biochemical
Text: as §2, §3

[20] = target: ALK2/ACVR1 (Homo sapiens (Human), UniProt Q04771); test: Broad kinase panel screening; type: biochemical
Text: as §2, §3

[21] = target: MLK2/MAP3K10 (Homo sapiens (Human), UniProt Q02779); test: Broad kinase panel screening; type: biochemical
Text: as §2, §3

[22] = target: CLK1 (Homo sapiens (Human), UniProt P49759); test: Broad kinase panel screening; type: biochemical
Text: as §2, §3

[23] = target: PKD2/PRKD2 (Homo sapiens (Human), UniProt Q9BZL6); test: Broad kinase panel screening; type: biochemical
PKD2/PRKD2, sequence (Q9BZL6 whole entry): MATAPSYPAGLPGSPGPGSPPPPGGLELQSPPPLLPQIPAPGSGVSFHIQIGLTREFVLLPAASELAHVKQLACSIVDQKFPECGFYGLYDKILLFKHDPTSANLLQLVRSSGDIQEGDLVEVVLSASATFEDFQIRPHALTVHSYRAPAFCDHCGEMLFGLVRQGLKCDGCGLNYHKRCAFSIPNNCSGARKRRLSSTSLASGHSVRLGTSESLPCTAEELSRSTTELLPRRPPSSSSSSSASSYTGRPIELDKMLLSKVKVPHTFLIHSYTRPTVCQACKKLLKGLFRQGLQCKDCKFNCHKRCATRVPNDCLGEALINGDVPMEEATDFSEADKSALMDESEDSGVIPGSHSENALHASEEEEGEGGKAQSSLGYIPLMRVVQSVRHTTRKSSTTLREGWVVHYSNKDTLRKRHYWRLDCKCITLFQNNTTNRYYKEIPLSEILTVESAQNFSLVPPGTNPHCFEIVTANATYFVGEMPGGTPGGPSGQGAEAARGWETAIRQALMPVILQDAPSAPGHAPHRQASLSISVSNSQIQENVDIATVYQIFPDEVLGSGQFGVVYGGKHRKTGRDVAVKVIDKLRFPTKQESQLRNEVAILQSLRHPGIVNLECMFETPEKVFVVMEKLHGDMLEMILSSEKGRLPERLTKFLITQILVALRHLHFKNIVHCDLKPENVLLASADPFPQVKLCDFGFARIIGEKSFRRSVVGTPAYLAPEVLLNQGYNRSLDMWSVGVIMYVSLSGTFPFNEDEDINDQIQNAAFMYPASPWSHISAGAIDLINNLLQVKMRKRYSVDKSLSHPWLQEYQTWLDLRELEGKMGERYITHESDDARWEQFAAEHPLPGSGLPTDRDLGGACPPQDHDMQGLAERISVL
Text: as §2, §3

[24] = target: ATM(h) (Homo sapiens (Human), UniProt Q13315); test: ATM activity, […] KINASEPROFILER; type: biochemical; settings: estimated IC50
Text: Estimated IC50 values are as follows (obtained using […] KINASEPROFILER): […]

[25] = test system: panel of lung cancer cell lines; test: […]-GLO cell viability, free drug monotherapy and combination screening; type: cell-based
Description: In vitro efficacy study was done using […]-GLO Luminescent Cell Viability Assay (Promega) with Corning Cat #3707 384 well White Clear bottom plates. Cells were plated (1000 cells/well) in 384 well format and allowed to incubate at 37° C. for 24 hours. Monotherapy drugs were added at the 24 hr time point and then allowed to incubate at 37° C. for 24 hours. At the 48 hr time point the drugs in media were removed, washed with PBS, and fresh media was added. Cells were then allowed to incubate at 37° C. for 72 hours. […]
At the 120 hr time point media was removed and […]-GLO (CTG) reagent was added (1:1 ratio with PBS). Plates were read using a luminometer (Envision Multilabel reader). […]
Data was analyzed using an in-house algorithm developed using Matlab (Mathworks, Natick Mass.). […]
Data quality control was performed to ensure that the concentration range is optimal according to these rules: (1) if the lowest concentration kills more than 70% of the cells the concentration range is deemed too potent (2) if the highest concentration kills less than 30% of the cells, the concentration range is deemed low or the cell line is too resistant. Additionally, goodness of the fit was evaluated using R^2 and R^2<0.9 is flagged as a bad fit.

pKa [3]: 10
IC50 [4]: 77.4 nM
IC50 [5]: 29.2 nM
IC50 [6]: 149 nM
IC50 [7]: 88.6 nM
IC50 [8]: 191 nM
IC50 ([9]; read-out: IC50 nM): 5.73 nM
IC50 ([9]; read-out: IC50): 5.73 nM
IC50 ([10]; read-out: IC50 nM): 72.6 nM
IC50 ([10]; read-out: IC50): 72.6 nM
IC50 [11]: 134 nM
IC50 ([12]; read-out: IC50 nM): 5.9 nM
IC50 ([12]; read-out: IC50): 5.9 nM
IC50 ([13]; read-out: IC50 nM): 63 nM
IC50 ([13]; read-out: IC50): 63 nM
IC50 [14]: 63.4 nM
IC50 [15]: 110 nM
IC50 [16]: 11.3 nM
IC50 [17]: 16.8 nM
IC50 [18]: 71.8 nM
IC50 [19]: 35.7 nM
IC50 [20]: 16.6 nM
IC50 [21]: 9.58 nM
IC50 [22]: 134 nM
IC50 [23]: 157 nM
IC50 [24]: > 10000 nM
potency (IC50) of chemotherapeutic agent combined with ATR inhibitor, vs Compound 6 ([25]; 1 μg/ml ATR inhibitor with Carboplatin, Gemcitabine or Compound B): more potent
SMILES: CN(C)CCC1CCN(CCS(=O)(=O)c2ccc(-c3cnc(N)c(C(=O)Nc4ccccc4)n3)cc2)CC1 [Compound 5, 3-amino-6-(4-((2-(4-(2-(dimethylamino)ethyl)piperidin-1-yl)ethyl)sulfonyl)phenyl)-N-phenylpyrazine-2-carboxamide]
relative cell proliferation vs the drugs alone [1]: reduced
relative cell proliferation vs the drugs alone [2]: reduced
monotherapy cell kill IC50, folds lower than Compound 6 ([25]; monotherapy, 24 h exposure): ~3 folds
